According to the supplement of paper PMC8253809:

What was measured:
[1] = test system: DIPGX29 (H3.3 K27M diffuse intrinsic pontine glioma line); test: area under dose-response curve of % growth inhibition (log2 RLU vs DMSO / staurosporine), 1e-11 to 1e-4 M (% x log10 M); higher = more growth inhibition
Method in brief: (§1)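 Area under the curve was derived with the trapezoid rule from a fitted log-logistic curve, switching to a smoothing spline if the sigmoid fit failed. It rested on per-plate % activity between solvent and positive controls, calculated from log2-transformed CellTiter-Glo luminescence after 7 days of exposure (3 days for iAstro) at 37 °C, 5% CO2. Patient-derived pHGG/DIPG lines and astrocytes on 1% Geltrex-coated 384-well plates received a 10-point threefold dilution series, mean top concentration 35 μM, in triplicate.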

[2] = test system: DIPGX7 (H3.3 K27M diffuse intrinsic pontine glioma line); test: as above
Method in brief: as §1

[3] = test system: HGGX2 (paediatric high-grade glioma line); test: as above
Method in brief: as §1

[4] = test system: HGGX39 (paediatric high-grade glioma line); test: as above
Method in brief: as §1

[5] = test system: HGGX42 (H3.3 G34R paediatric high-grade glioma line); test: as above
Method in brief: as §1

[6] = test system: SUDIPGIV (diffuse intrinsic pontine glioma line); test: as above
Method in brief: as §1

[7] = test system: SUDIPGVI (diffuse intrinsic pontine glioma line); test: as above
Method in brief: as §1

[8] = test system: SUDIPGXIX (diffuse intrinsic pontine glioma line); test: as above
Method in brief: as §1

[9] = test system: SUDIPGXVII (diffuse intrinsic pontine glioma line); test: as above
Method in brief: as §1

[10] = test system: SUDIPGXXI (diffuse intrinsic pontine glioma line); test: as above
Method in brief: as §1

[11] = test system: iAstro (astrocyte control); test: as above
Method in brief: as §1

[12] = test system: HGGX6 (H3.3 G34R paediatric high-grade glioma line); test: growth inhibition relative to DMSO (0) and positive control (1) (fraction); higher = more growth inhibition
Protocol: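 Paxalisib (GDC0084) x mirdametinib (PD0325901) dose matrix on pHGG cell lines and astrocyte controls, 7 days, adherent 384-well. CellTiter-Glo RLU was normalised (no log2) to fractional activity between DMSO (0) and the positive control (1). Each combination was tested in two plate orientations.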

CC(=O)c1cc([N+](=O)[O-])c(Sc2ccc(F)cc2F)s1
Details	area under dose-response curve
[1]	104
[2]	94.3
[3]	78.5
[4]	19.5
[5]	84
[6]	91.3
[7]	71.4
[8]	91.8
[9]	55.7
[10]	87.4
[11]	75.5

CC(C)c1c2cc(-c3ccnc(NC4CCC(NC5CCOCC5)CC4)n3)ccc2nn1C (stereo unspecified)
Details	area under dose-response curve
[1]	222
[2]	270
[3]	198
[4]	189
[5]	252
[6]	256
[7]	252
[8]	278
[9]	263
[10]	319
[11]	91.7

CC(C)c1cc(C(=O)N2Cc3ccc(CN4CCN(C)CC4)cc3C2)c(O)cc1O
Details	area under dose-response curve
[1]	189
[2]	125
[3]	145
[4]	218
[5]	131
[6]	152
[7]	88.8
[8]	230
[9]	164
[10]	256
[11]	88

COc1cc(F)ccc1-c1ncnc(Nc2cccc(CS(C)(=N)=O)c2)n1 (stereo unspecified)
Details	area under dose-response curve
[1]	109
[2]	143
[3]	100
[4]	82.1
[5]	134
[6]	156
[7]	120
[8]	156
[9]	109
[10]	226
[11]	57.6

Cc1ccc2nc(NCCN)c3ncc(C)n3c2c1
Details	area under dose-response curve
[1]	94.6
[2]	96.7
[3]	54.2
[4]	52.5
[5]	83.7
[6]	113
[7]	67
[8]	79.1
[9]	78.2
[10]	143
[11]	35.1

O=C(c1ccccc1)c1ccc2nc(NC(=O)c3csc(C4CCN(c5ncnc6ccsc56)CC4)n3)[nH]c2c1
Details	area under dose-response curve
[1]	97.4
[2]	135
[3]	83.7
[4]	55.4
[5]	72.8
[6]	51.4
[7]	67
[8]	118
[9]	68.3
[10]	147
[11]	88.4

O=C(NOC[C@H](O)CO)c1ccc(F)c(F)c1Nc1ccc(I)cc1F + CC1(C)OCCn2c1nc1c(N3CCOCC3)nc(-c3cnc(N)nc3)nc12 [GDC0084]
growth inhibition, [12]
Details	compound 1 concentration 0.009766 µM	compound 1 concentration 0.01953 µM	compound 1 concentration 0.03906 µM	compound 1 concentration 0.07812 µM	compound 1 concentration 0.15625 µM	compound 1 concentration 0.3125 µM	compound 1 concentration 0.625 µM	compound 1 concentration 1.25 µM	compound 1 concentration 5 µM	compound 1 concentration 20 µM
compound 2 concentration 0.03906 µM	-0.0587	-0.133	-0.0423	-0.0209	0.0525	0.0544	0.136	0.172	0.433	0.608
compound 2 concentration 0.07812 µM	0.159	0.159	0.235	0.123	0.215	0.239	0.175	0.334	0.493	0.707
compound 2 concentration 0.15625 µM	0.0791	0.129	0.0602	0.134	0.0901	0.167	0.22	0.321	0.536	0.68
compound 2 concentration 0.3125 µM	0.217	0.19	0.195	0.14	0.172	0.319	0.322	0.391	0.572	0.713
compound 2 concentration 0.625 µM	0.371	0.37	0.329	0.373	0.258	0.373	0.432	0.457	0.633	0.748
compound 2 concentration 1.25 µM	0.572	0.523	0.53	0.483	0.467	0.501	0.53	0.544	0.679	0.799
compound 2 concentration 5 µM	0.709	0.727	0.714	0.72	0.705	0.725	0.719	0.747	0.798	0.86
compound 2 concentration 20 µM	0.867	0.859	0.851	0.861	0.86	0.852	0.866	0.859	0.887	0.947

CC1(C)OCCn2c1nc1c(N3CCOCC3)nc(-c3cnc(N)nc3)nc12 [GDC0084] + O=C(NOC[C@H](O)CO)c1ccc(F)c(F)c1Nc1ccc(I)cc1F [PD0325901]
growth inhibition, [12]
Details	compound 1 concentration 0.009766 µM	compound 1 concentration 0.01953 µM	compound 1 concentration 0.03906 µM	compound 1 concentration 0.07812 µM	compound 1 concentration 0.15625 µM	compound 1 concentration 0.3125 µM	compound 1 concentration 0.625 µM	compound 1 concentration 1.25 µM	compound 1 concentration 5 µM	compound 1 concentration 20 µM
compound 2 concentration 0.03906 µM	-0.0592	-0.118	-0.0557	0.0473	0.0152	0.16	0.251	0.451	0.708	0.857
compound 2 concentration 0.07812 µM	0.064	-0.018	-0.00542	0.0583	0.162	0.132	0.254	0.475	0.717	0.883
compound 2 concentration 0.15625 µM	0.0118	0.0255	-0.000602	0.014	0.0815	0.2	0.302	0.466	0.711	0.857
compound 2 concentration 0.3125 µM	0.0282	0.112	0.0905	0.102	0.124	0.205	0.31	0.505	0.707	0.865
compound 2 concentration 0.625 µM	0.155	0.263	0.16	0.217	0.212	0.336	0.371	0.511	0.733	0.849
compound 2 concentration 1.25 µM	0.226	0.235	0.284	0.245	0.295	0.368	0.424	0.564	0.776	0.841
compound 2 concentration 5 µM	0.429	0.43	0.452	0.47	0.569	0.626	0.645	0.728	0.796	0.901
compound 2 concentration 20 µM	0.595	0.612	0.628	0.661	0.667	0.729	0.762	0.814	0.871	0.94
